The record followed here is US20170042924A1, “MUSCLE ATROPHY INHIBITOR CONTAINING QUERCETIN GLYCOSIDE” (SUNTORY HOLDINGS LIMITED, priority 2014, published 2017).

The subject of one assay is BALB/c male mice. Nature of the assay: Dexamethasone-induced muscle atrophy, forced oral administration test, gastrocnemius weight/body weight ratio. The format is in vivo. The note with it: 200 mg/kg QG or equivalent amount of quercetin in terms of rutin, with DEX 10 mg/L in drinking water, compared to the DEX group, FIG. 3. As for the experimental part: BALB/c male mice aged 7 weeks were habituated for one week, and then allowed to ingest 10 mg/L dexamethasone (DEX) in drinking water ad libitum. Next, 200 mg/kg quercetin glycoside (QG) and an equivalent amount of quercetin (Q) in terms of rutin were each suspended in milliQ water containing 0.5% carboxymethyl cellulose sodium salt, and the suspensions were each forcibly administered orally […] to the mice for five days (from Monday to Friday). Then, administration of 10 mg/L DEX in drinking water was started from Friday. In the next week, forced oral QG/Q administration was resumed (from Monday to Thursday) concurrently with DEX administration in drinking water, and the mice were dissected on Friday. Sample collection after the administration test, muscle atrophy evaluation based on gastrocnemius weight (GW)/body weight (BW) ratio, and gene expression level analysis in gastrocnemius tissue were performed according to the procedures described in Examples 1 and 2. The differences in average gene expression levels between the DEX group and each of the DEX+QG group and the DEX+Q group were analyzed by Dunnett's test, with p-values below 5% being considered significant.

A further assay deals with MuRF-1. Briefly: MuRF-1 expression in gastrocnemius tissue, forced oral administration test. It is filed as in vivo, mice. The note with it: 200 mg/kg QG or equivalent amount of quercetin, with DEX 10 mg/L in drinking water, compared to the DEX group, FIG. 4. On the procedure:
(§1) Thereafter, for the purpose of a detailed analysis of the molecular mechanisms, the expression of genes involved in muscle atrophy in gastrocnemius tissue was analyzed. RNA was extracted from the cryopreserved gastrocnemius samples using ISOGEN (Nippon Gene Co., Ltd.) and the RNeazy Mini Kit (Qiagen). Then, cDNA synthesis was conducted using the High-Capacity cDNA Reverse Transcriptional Kits (Applied biosystems). Based on the constructed cDNAs, the messenger RNA (mRNA) levels of the muscle atrophy-related genes (Atrogin-1, MuRF-1, Foxo1, Redd1, and Mstn) and the control gene (18SrRNA) were determined by quantitative reverse transcription PCR using the TaqMan Fast Universal PCR Master Mix (Applied biosystems). The values obtained were expressed as mean±standard deviation. The differences in average gene expression levels between the DEX group and each of the DEX+QG groups were analyzed by Student's t-test, with p-values below 5% being considered significant. BALB/c male mice aged 7 weeks were habituated for one week, and then allowed to ingest 10 mg/L dexamethasone (DEX) in drinking water ad libitum. […] The differences in average gene expression levels between the DEX group and each of the DEX+QG group and the DEX+Q group were analyzed by Dunnett's test, with p-values below 5% being considered significant.

The subject of the next assay is Foxo1. Briefly: Foxo1 expression in gastrocnemius tissue, forced oral administration test. The format is in vivo, mice. As to conditions: 200 mg/kg QG or equivalent amount of quercetin, with DEX 10 mg/L in drinking water, compared to the DEX group, FIG. 4. As for the experimental part: as §1
For another assay, the system named is Redd1. Nature of the assay: Redd1 expression in gastrocnemius tissue, forced oral administration test. It is filed as in vivo, mice. The note with it: 200 mg/kg QG or equivalent amount of quercetin, with DEX 10 mg/L in drinking water, compared to the DEX group, FIG. 4. As for the experimental part: as §1

For `O=c1c(O)c(-c2ccc(O)c(O)c2)oc2cc(O)cc(O)c12` [quercetin], the “GW/BW ratio (gastrocnemius weight divided by body weight)” value in the assay on BALB/c male mice is listed as “not effective in improving the GW/BW ratio”. For the same compound, the “expression of MuRF-1 increased by DEX administration” value in the assay on MuRF-1 is listed as “not effective in inhibiting the expression”. For the same compound, in the assay on Foxo1, the “expression of Foxo1 increased by DEX administration” value is on record as “not effective in inhibiting the expression”. The “expression of Redd1 increased by DEX administration” value in the assay on Redd1 was “not effective in inhibiting the expression”.
